From patent US8846345B2, “Recombinant cell line” (The Queen's University of Belfast, priority 2002, dated 2014)

B1: IL-12 β-chain (p40), carboxyterminally hexahistidine-tagged (HIBERNIA.1 cells, pIND(SP1)-p40H) (ligand)
chain: IWELKKDVYVVELDWYPDAPGEMVVLTCDTPEEDGITWTLDQSSEVLGSGKTLTIQVKEFGDAGQYTCHKGGEVLSHSLLLLHKKEDGIWSTDILKDQKEPKNKTFLRCEAKNYSGRFTCWWLTTISTDLTFSVKSSRGSSDPQGVTCGAATLSAERVRGDNKEYEYSVECQEDSACPAAEESLPIEVMVDAVHKLKYENYTSSFFIRDIIKPDPPKNLQLKPLKNSRQVEVSWEYPDTWSTPHSYFSLTFCVQVQGKSKREKKDRVFTDKTSATVICRKNASISVRAQDRYYSSSWSEWASVPCSHHHHHH
notes: mature; Secreted by HIBERNIA.1 cells as a monomer (about 40 kD) and as a disulfide-bonded homodimer (about 80 kD); also called β chain homodimer (80 kD form)
B2: IL-12 α-chain (p35), carboxyterminal hexahistidine-tagged (ligand)
chain: RNLPVATPDPGMFPCLHHSQNLLRAVSNMLQKARQTLEFYPCTSEEIDHEDITKDKTSTVEACLPLELTKNESCLNSRETSFITNGSCLASRKTSFMMALCLSSIYEDLKMYQVEFKTMNAKLLMDPKRQIFLDQNMLAVIDELMQALNFNSETVPQKSSLEEPDFYKTKIKLCILLHAFRIRAVTIDRVMSYLNASHHHHHH
notes: mature; Expressed in EcR293 or HIBERNIA.1 cells from pIND-p35H or pIND(SP1)-p35H; N-glycosylated; also called p35H; His-tagged α-chain

Columns and labels:
[1] = tested on: IL-12 α and β monomer forms; experiment: Inhibitor assay: secretion of IL-12 α and β monomer forms; details: 16 hr treatment
EcR293 cells = experiment: MTT cytotoxicity test; format: cell-based, human
Method: The mitochondrial ...MTT test is widely use as a cytotoxicity test. This test is principally based on the propensity of mitochondrial dehydrogenases to cleave the tetrazolium ring of. The viability of cells is proportional to the activity of mitochondrial dehydrogenases. Cleavage of the tetrazolium ring results in the formation of purple formazan crystals. We used the MTT assay to quantify cytotoxicity of celecoxib on EcR293 cells. The test was performed in 96-well plates in which 10^5 cells per well were plated the day before application of the MTT test. Following addition of celecoxib to the culture medium, cells were induced by ponasterone A, as explained before. After 16 hours of induction, the MTT reagent (10 μl of 100 mg/ml stock solution) was added to the cells. Two hours later, the medium was removed, and the cells were dissolved in DMSO. DMSO solubilizes formazan crystals. Absorbance was measured at 550 nm using a 96-well plate spectrophotometer.

mRNA of IL-12 = experiment: Effect on IL-12 mRNA; format: cell-based, human
[2] = molecular target: the molecule itself; experiment: non-reducing SDS-PAGE and anti-β-chain immunoblot of secreted fraction
[3] = molecular target: B1; experiment: co-expression; non-reducing and reducing SDS-PAGE with anti-α-chain and anti-β-chain immunoblots
[4] = molecular target: the molecule itself; experiment: non-reducing SDS-PAGE of medium of recombinant cell lines secreting the α chain

**Q.** With `CNc1ccc2oc(C[C@H]3O[C@@]4(CC[C@H]3C)O[C@H]([C@H](C)C(=O)c3ccc[nH]3)[C@H](C)C[C@H]4C)nc2c1C(=O)O` [A23187] as the molecule, how does the “secretion of IL-12 α and β monomer forms” value [1] read?
**A.** Its value is “suppressed by neither”.

**Q.** And the “concentration at which toxicity was observed (MTT test)” value (“concentration” for short) (EcR293 cells; 16 hr test period)?
**A.** Its value is over 10 µM.

**Q.** `Cc1ccc(-c2cc(C(F)(F)F)nn2-c2ccc(S(N)(=O)=O)cc2)cc1` [Celecoxib, 4-[5-(4-methylpheny)-3-(trifluoromethyl)-IH-pyrazol-I-yl]benzenesulfonamide] was tested. Which “effect on mRNA of IL-12” value (mRNA of IL-12) did it give?
**A.** The value was “no effect”.

**Q.** And the “concentration” value (EcR293 cells; human, 16 h)?
**A.** Its value is at least 100 µM.

**Q.** `C/C=C(/C)C(=O)O[C@H]1C(C)=C2[C@H]([C@@H]1OC(=O)CCCCCCC)[C@@](C)(OC(C)=O)C[C@H](OC(=O)CCC)[C@@]1(O)[C@H]2OC(=O)[C@@]1(C)O` [thapsigargin] was tested. Which “secretion of IL-12 α and β monomer forms” value [1] did it give?
**A.** Its value is “suppressed by neither”.

**Q.** And the “concentration” value (EcR293 cells; human, 16 h)?
**A.** The value was 5 to 10 µM.

**Q.** Does B1 bind [2]?
**A.** Result: binds

**Q.** Does B2 bind [3]?
**A.** Result: binds

**Q.** Does B2 bind [4]?
**A.** Result: no binding
